Reference: patent US10071957B2, “N-substituted benzamides and methods of use thereof” (GENENTECH, INC., priority 2012, dated 2018)

Experiments:
[1] = biological target: T1, hNaV1.7 (Homo sapiens (Human), UniProt Q15858); experiment: Competitive binding of tritiated compound to membranes from cells expressing hNav1.7 and the β1 subunit; conditions: 100 pM [3H]compound, 18 h, room temperature; read-out: NaV1.7 395 Membrane Binding IC50
Protocol: Tritiated compound binding to membranes isolated from cells that heterologously express hNav1.7 and the β1 subunit
Preparation of membranes containing recombinantly expressed sodium channels: Frozen recombinant cell pellets were thawed on ice and diluted to 4 times the cell pellet weight with ice cold 50 mM Tris HCl, pH 7.4 buffer. The cell suspensions were homogenized on ice using a motorized glass dounce homogeniser. Homogenates were further diluted 8.4 times with ice cold 50 mM Tris HCl, pH 7.4 buffer and then centrifuged at 200×g at 4° C. for 15 min. The supernatants were collected and centrifuged at 10000×g at 4° C. for 50 min. The pellets were then re-suspended in 100 mM NaCl, 20 mM Tris HCl, pH 7.4 buffer containing 1% v/v protease inhibitors (Calbiochem) and re-homogenized on ice. The homogenized membranes were then processed through a syringe equipped with a 26 gauge needle. Protein concentrations were determined by Bradford Assay and the membranes were stored at −80° C.
Radioligand Binding Studies: Saturation experiments. A representative compound of formula (I) was tritiated. Three tritiums were incorporated in place of methyl hydrogens to generate [^3H]compound. Binding of this radioligand was performed in 5 mL borosilicate glass test tubes at room temperature. Binding was initiated by adding membranes to increasing concentrations of [^3H]compound in 100 mM NaCl, 20 mM Tris HCl, pH 7.4 buffer containing 0.01% w/v bovine serum albumin (BSA) for 18 h. Non-specific binding was determined in the presence of 1 μM unlabelled compound. After 18 h, the reactants were filtered through GF/C glass fiber filters presoaked in 0.5% w/v polyethylene imine. Filters were washed with 15 mL ice cold 100 mM NaCl, 20 mM Tris HCl, pH 7.4 buffer containing 0.25% BSA to separate bound from free ligand. [^3H]compound bound to filters was quantified by liquid scintillation counting.
Competitive binding experiments. Binding reactions were performed in 96-well polypropylene plates at room temperature for 18 h. In 360 μL, membranes were incubated with 100 pM [^3H]compound and increasing concentrations of Test Compound. Non-specific binding was defined in the presence of 1 μM unlabelled compound. Reactions were transferred and filtered through 96-well glass fiber/C filter plates presoaked with 0.5% polyethylene imine. The filtered reactions were washed 5 times with 200 μL ice cold buffer containing 0.25% BSA. Bound radioactivity was determined by liquid scintillation counting.
Data Analysis: For saturation experiments, non-specific binding was subtracted from total binding to provide specific binding and these values were recalculated in terms of pmol ligand bound per mg protein. Saturation curves were constructed and dissociation constants were calculated using the single site ligand binding model: Beq=(Bmax*X)/(X+Kd), where Beq is the amount of ligand bound at equilibrium, Bmax is the maximum receptor density, Kd is the dissociation constant for the ligand, and X is the free ligand concentration. For competition studies percent inhibition was determined and IC50 values were calculated using a 4 parameter logistic model (% inhibition=(A+((B−A)/(1+((x/C)^D)))) using XLfit, where A and B are the maximal and minimum inhibition respectively, C is the IC50 concentration and D is the (Hill) slope.

[2] = biological target: T1, hNaV1.7; experiment: Patch voltage clamp electrophysiology, inactivated state block of NaV1.7 in HEK-293 cells; type: cell-based; conditions: HEK cells with β1 subunit, read-out: hNaV 1.7 IC50
Protocol: Patch voltage clamp electrophysiology allows for the direct measurement and quantification of block of voltage-gated sodium channels (NaV's), and allows the determination of the time- and voltage-dependence of block which has been interpreted as differential binding to the resting, open, and inactivated states of the sodium channel (Hille, B., Journal of General Physiology (1977), 69: 497-515).
The following patch voltage clamp electrophysiology studies were performed on representative compounds of the invention using human embryonic kidney cells (HEK), permanently transfected with an expression vector containing the full-length cDNA coding for the desired human sodium channel α-subunit, grown in culture media containing 10% FBS, 1% PSG, and 0.5 mg/mL G418 at 37° C. with 5% CO2. […] NaV1.7 and NaV1.5 cDNAs (NM_002977 and AC137587; SCN5A, respectively) were stably expressed in HEK-293 cells. The β1 subunit was coexpressed in both the NaV1.7 and NaV1.5 cell lines.
Sodium currents were measured using the patch clamp technique in the whole-cell configuration using either a PatchXpress automated voltage clamp or manually using an Axopatch 200B (Axon Instruments) or Model 2400 (A-M systems) amplifier. The manual voltage clamp protocol was as follows:
The pipette was filled with a solution comprised of: 5 mM NaCl, 10 mM CsCl, 120 mM CsF, 0.1 mM CaCl2, 2 mM MgCl2, 10 mM HEPES, 10 mM EGTA; and adjusted to pH 7.2 with CsOH. The external solution had the following composition: 140 mM NaCl, 5 mM KCl, 2 mM CaCl2, 1 mM MgCl2, 10 mM HEPES; and adjusted to pH 7.4 with NaOH. In some studies, the external sodium was reduced by equimolar replacement with choline. Osmolarity in the CsF internal and NaCl external solutions was adjusted to 300 mOsm/kg and 310 mOsm/kg with glucose, respectively. All recordings were performed at ambient temperature in a bath chamber with a volume of 150 μL. Control sodium currents were measured in 0.5% DMSO. Controls and representative compounds of the invention were applied to the recording chamber through a 4-pinch or 8-pinch valve bath perfusion system manufactured by ALA Scientific Instruments.
Currents were recorded at 40 kHz sampling frequency, filtered at […], and stored using a Digidata-1322A analogue/digital interface with the pClamp software (Axon Instruments). Series resistance compensation was applied (60-80%). […] All statistics in this study are given as mean±SD.
The membrane potential was maintained at a voltage where inactivation of the channel is complete (which was −60 mV for both NaV1.7 and NaV1.5). […] The percent decrease in sodium current following wash-on of compound was taken as the percent block of sodium channels.

T1 sequence (Q15858 whole entry, looked up): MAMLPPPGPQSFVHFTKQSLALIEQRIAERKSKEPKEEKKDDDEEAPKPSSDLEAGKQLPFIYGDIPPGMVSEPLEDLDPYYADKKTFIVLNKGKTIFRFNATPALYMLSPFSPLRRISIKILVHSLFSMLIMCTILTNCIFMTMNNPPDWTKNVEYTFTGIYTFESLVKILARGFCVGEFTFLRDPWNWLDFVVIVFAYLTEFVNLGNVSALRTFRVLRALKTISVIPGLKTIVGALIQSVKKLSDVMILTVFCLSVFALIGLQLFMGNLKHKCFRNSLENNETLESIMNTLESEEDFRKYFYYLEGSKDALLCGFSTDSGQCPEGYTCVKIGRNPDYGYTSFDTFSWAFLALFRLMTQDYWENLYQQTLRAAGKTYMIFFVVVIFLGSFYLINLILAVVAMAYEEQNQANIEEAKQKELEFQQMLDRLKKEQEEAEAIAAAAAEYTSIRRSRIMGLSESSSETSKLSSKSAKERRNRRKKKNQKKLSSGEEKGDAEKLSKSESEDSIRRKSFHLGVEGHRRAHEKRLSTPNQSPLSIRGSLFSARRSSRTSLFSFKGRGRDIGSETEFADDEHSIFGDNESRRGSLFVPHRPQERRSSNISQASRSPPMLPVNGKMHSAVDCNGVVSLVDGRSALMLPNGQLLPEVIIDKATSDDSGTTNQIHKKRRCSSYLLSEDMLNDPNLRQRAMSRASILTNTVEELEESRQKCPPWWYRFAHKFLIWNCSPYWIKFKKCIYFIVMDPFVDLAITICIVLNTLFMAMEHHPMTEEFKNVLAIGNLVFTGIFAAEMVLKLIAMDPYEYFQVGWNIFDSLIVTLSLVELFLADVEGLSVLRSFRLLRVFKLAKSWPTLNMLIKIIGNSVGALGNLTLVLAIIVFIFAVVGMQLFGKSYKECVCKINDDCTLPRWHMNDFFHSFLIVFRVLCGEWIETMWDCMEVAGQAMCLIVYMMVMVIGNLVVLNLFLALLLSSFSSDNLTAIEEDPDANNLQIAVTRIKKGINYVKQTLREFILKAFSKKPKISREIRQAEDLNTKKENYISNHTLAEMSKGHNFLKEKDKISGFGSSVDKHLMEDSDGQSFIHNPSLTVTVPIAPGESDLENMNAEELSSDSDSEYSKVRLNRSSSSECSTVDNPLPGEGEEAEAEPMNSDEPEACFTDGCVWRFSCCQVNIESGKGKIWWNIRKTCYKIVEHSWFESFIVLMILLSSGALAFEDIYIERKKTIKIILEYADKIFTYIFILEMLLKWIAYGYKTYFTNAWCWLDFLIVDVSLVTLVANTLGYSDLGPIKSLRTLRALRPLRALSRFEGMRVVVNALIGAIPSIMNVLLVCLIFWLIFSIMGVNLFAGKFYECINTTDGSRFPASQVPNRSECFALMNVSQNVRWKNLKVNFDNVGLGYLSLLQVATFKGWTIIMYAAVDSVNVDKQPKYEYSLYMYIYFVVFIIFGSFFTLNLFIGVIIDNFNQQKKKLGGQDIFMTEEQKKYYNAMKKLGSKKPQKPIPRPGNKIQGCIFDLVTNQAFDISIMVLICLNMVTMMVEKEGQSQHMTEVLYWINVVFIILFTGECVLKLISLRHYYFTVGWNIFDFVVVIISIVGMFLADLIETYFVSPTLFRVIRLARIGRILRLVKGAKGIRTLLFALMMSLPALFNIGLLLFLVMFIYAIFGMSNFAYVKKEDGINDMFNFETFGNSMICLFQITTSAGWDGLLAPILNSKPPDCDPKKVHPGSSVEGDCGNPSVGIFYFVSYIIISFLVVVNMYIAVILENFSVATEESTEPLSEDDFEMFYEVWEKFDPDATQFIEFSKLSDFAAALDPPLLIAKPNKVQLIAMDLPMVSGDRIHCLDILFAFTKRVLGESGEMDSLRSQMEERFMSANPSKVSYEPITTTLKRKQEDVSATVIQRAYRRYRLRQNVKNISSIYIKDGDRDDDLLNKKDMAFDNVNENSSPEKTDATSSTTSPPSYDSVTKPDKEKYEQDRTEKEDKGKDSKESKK
T1 sequence (Q07699 whole entry partner, looked up): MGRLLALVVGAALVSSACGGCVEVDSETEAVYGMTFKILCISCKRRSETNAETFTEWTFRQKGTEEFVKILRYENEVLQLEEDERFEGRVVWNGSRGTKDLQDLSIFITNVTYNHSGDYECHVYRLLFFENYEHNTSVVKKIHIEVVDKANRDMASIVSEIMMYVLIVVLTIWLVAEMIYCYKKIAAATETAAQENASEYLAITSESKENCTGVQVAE

Compound | IC50 [1] [nM] | IC50 [2] [nM]
CC(C)COc1ncc(Oc2cc(F)c(C(=O)NS(=O)(=O)Nc3ccc(C#N)cc3)cc2Cl)cc1Cl [Preparation 21, 5-chloro-4-((5-chloro-6-isobutoxypyridin-3-yl)oxy)-N-(N-(4-cyanophenyl)sulfamoyl)-2-fluoro-benzamide] | 2940 | 828
CC(C)COc1ncc(Oc2cc(F)c(C(=O)NS(=O)(=O)N3CCCCC3)cc2Cl)cc1Cl [Preparation 15, 5-chloro-4-((5-chloro-6-isobutoxypyridin-3-yl)oxy)-2-fluoro-N-(piperidin-1-ylsulfonyl)benzamide] | 58.4 | 64
CC(C)COc1ncc(Oc2cc(F)c(C(=O)NS(=O)(=O)N(C)C(C)C)cc2Cl)cc1Cl [Preparation 17, 5-chloro-4-((5-chloro-6-isobutoxypyridin-3-yl)oxy)-2-fluoro-N-(N-isopropyl-N-methylsulfamoyl) benzamide] | 123 | 125
CC(C)COc1ncc(Oc2cc(F)c(C(=O)NS(N)(=O)=O)cc2Cl)cc1Cl [Preparation 4, 5-chloro-4-((5-chloro-6-isobutoxypyridin-3-yl)oxy)-2-fluoro-N-sulfamoylbenzamide] | 70.8 | 9
CNS(=O)(=O)NC(=O)c1cc(Cl)c(Oc2ccc(Cl)c(C(F)(F)F)c2)cc1F [Preparation 8, 5-chloro-4-(4-chloro-3-(trifluoromethyl)phenoxy)-2-fluoro-N-(N-methyl-sulfamoyl)benzamide] | 109 | 22
C=Cc1cc(C(=O)NS(=O)(=O)N2CCC2)c(F)cc1Oc1cnc(OCC(F)(F)F)c(Cl)c1 [Preparation 92] | 11 | 4.3
CNS(=O)(=O)NC(=O)c1cc(C2CC2)c(Oc2cnc(OC(C)C)c(Cl)c2)cc1F [Preparation 90] | 6 | –
CNS(=O)(=O)NC(=O)c1cc(Cl)c(COc2ccc(Cl)c(C(F)(F)F)c2)cc1F [Preparation 78] | 35 | –
CC(C)COc1ncc(Oc2cc(F)c(C(=O)NS(=O)(=O)N(C)C)cc2Cl)cc1C(F)(F)F [Preparation 40, 5-chloro-N-(N,N-dimethylsulfamoyl)-2-fluoro-4-((6-iso-butoxy-5-(trifluoro-methyl)pyridin-3-yl)oxy)benzamide] | 71 | –
CC(C)COc1ncc(Oc2cc(F)c(C(=O)NS(=O)(=O)NCc3ccccc3)cc2Cl)cc1Cl [Preparation 18, N-(N-benzyl-sulfamoyl)-5-chloro-4-((5-chloro-6-isobutoxy-pyridin-3-yl)oxy)-2-fluorobenzamide] | 4180 | –

Second part, the molecule after the results:

IC50 [1] [nM] | IC50 [2] [nM] | Compound
47.8 | 34 | CN(C)S(=O)(=O)NC(=O)c1cc(Cl)c(Oc2cnc(OCC(F)(F)C(F)F)c(Cl)c2)cc1F [Preparation 30, 5-chloro-4-(5-chloro-6-(2,2,3,3-tetrafluoro-propoxy)pyridin-3-yloxy)-N-(N,N-dimethylsulfamoyl)-2-fluorobenzamide]
1130 | 190 | NS(=O)(=O)NC(=O)c1cc(Cl)c(Oc2ccc(Cl)c(C(F)(F)F)c2)cc1F [Preparation 7, 5-chloro-4-(4-chloro-3-(trifluoromethyl)phenoxy)-2-fluoro-N-sulfamoyl-benzamide]
1250 | 271 | CN(C)S(=O)(=O)NC(=O)c1cc(Cl)c(OCc2ccc(Cl)c(Cl)c2)cc1F [Preparation 23, 5-chloro-4-((3,4-dichlorobenzyl)oxy)-N-(N,N-dimethyl-sulfamoyl)-2-fluoro-benzamide]
253 | 53 | CN(C)S(=O)(=O)NC(=O)c1cc(Cl)c(Oc2ccc(Cl)c(C(F)(F)F)c2)cc1F [Preparation 1, 5-chloro-4-(4-chloro-3-(trifluoromethyl)phenoxy)-N-(N,N-dimethylsulfamoyl)-2-fluorobenzamide]
28 | 11.6 | CNS(=O)(=O)NC(=O)c1cc(Cl)c(COc2ccc(Cl)c(Cl)c2)cc1F [Preparation 80]
2000 | 226 | NS(=O)(=O)NC(=O)c1cc(Cl)c(Oc2ccc(OC(F)(F)F)c(Cl)c2)cc1F [Preparation 10, 5-chloro-4-(3-chloro-4-(trifluoromethoxy)phenoxy)-2-fluoro-N-sulfamoyl-benzamide]
220 | 34.3 | CN(C)S(=O)(=O)NC(=O)c1cc(Cl)c(COc2cnc(OCC(F)(F)C(F)F)c(Cl)c2)cc1F [Preparation 76]
5200 | – | Cc1cc2cc(Oc3cc(F)c(C(=O)NS(=O)(=O)N(C)C)cc3Cl)ccc2[nH]1 [Preparation 59, 5-chloro-N-(N,N-dimethylsulfamoyl)-2-fluoro-4-((2-methyl-1H-indol-5-yl)oxy) benzamide]
665 | – | CN(C)S(=O)(=O)NC(=O)c1cc(Cl)c(Oc2cnc(Cl)c(Cl)c2)cc1F [Preparation 35, 5-chloro-4-((5,6-dichloropyridin-3-yl)oxy)-N-(N,N-dimethylsulfamoyl)-2-fluorobenzamide]
2400 | – | COc1ccc(CCOc2cc(F)c(C(=O)NS(=O)(=O)N(C)C)cc2Cl)cc1 [Preparation 57, 5-chloro-N-(N,N-dimethylsulfamoyl)-2-fluoro-4-(4-methoxy-phenethoxy)benzamide]
9600 | – | CN(C)S(=O)(=O)NC(=O)c1cc(Cl)c(Oc2ccc3ncccc3c2)cc1F [Preparation 72, 5-chloro-N-(N,N-dimethylsulfamoyl)-2-fluoro-4-(quinolin-6-yloxy)benzamide]
3470 | – | CN(C)S(=O)(=O)NC(=O)c1cc(Cl)c(Oc2ccc(F)c(F)c2)cc1F [Preparation 49, 5-chloro-4-(3,4-difluorophenoxy)-N-(N,N-dimethyl-sulfamoyl)-2-fluorobenzamide]
22.8 | – | CNS(=O)(=O)NC(=O)c1cc(Cl)c(Oc2cnc(OCC(F)(F)C(F)F)c(Cl)c2)cc1F [Preparation 33, 5-chloro-4-((5-chloro-6-(2,2,3,3-tetrafluoro-propoxy)pyridin-3-yl)oxy)-2-fluoro-N-(N-methylsulfamoyl) benzamide]
20000 | – | CN(C)S(=O)(=O)NC(=O)c1cc(Cl)c(Oc2ccc(S(C)(=O)=O)cc2)cc1F [Preparation 61, 5-chloro-N-(N,N-dimethylsulfamoyl)-2-fluoro-4-(4-(methyl-sulfonyl)phenoxy) benzamide]
